Data as given in patent US20090047269A1, “METABOLOMIC CANCER TARGETS” (The Regents of the University of Michigan, priority 2007, published 2009).

Columns and labels:
Format in all cases: cell-based
EGFR = test: Immunoblot analysis of EGFR phosphorylation and total EGFR; settings: for total EGFR levels upon treatment: prostate epithelial cells
[1] = system: immortalized benign RWPE prostate cells; test: Modified Boyden chamber matrigel invasion assay, RWPE cells; settings: for induction of invasion upon exogenous addition / increased invasion upon sarcosine addition compared to control: benign prostate epithelial cells; for increased invasion upon sarcosine addition compared to control: alanine as control
Protocol: To investigate the biological role of sarcosine elevation in prostate cancer, prostate cancer cell lines VCaP, DU145, 22RV1 and LNCaP and their benign epithelial counterparts, primary benign prostate epithelial cells PrEC and immortalized benign RWPE prostate cells were used.
To determine if sarcosine plays a role in this process, it was added directly to non-invasive benign prostate epithelial cells. Alanine (an isomer of sarcosine) was used as a control for these experiments. […] The present invention is not limited to a particular mechanism. Indeed, an understanding of the mechanism is not necessary to practice the present invention.
To understand the role of sarcosine in prostate cancer progression, levels of the metabolite was measured in a panel of prostate-derived cell lines. […] The knock down studies were carried out using specific siRNA and the extent of target inhibition was assessed using Q-PCR. The in vitro Boyden chamber assay was used to qualify the modulation in the invasiveness of the knock down cells.

src = test: Immunoblot analysis of src phosphorylation; settings: prostate epithelial cells (PrEC), compared to alanine-treated controls
Excerpt: (§1) Also total EGFR levels were elevated upon treatment with alanine or sarcosine. […] This observation was further strengthened using both antibody-mediated inhibition of EGFRactivity and siRNA-mediated knock-down of receptor levels.

p38MAPK = test: Immunoblot analysis of p38MAPK phosphorylation; settings: sarcosine-treated PrEC samples
Excerpt: as §1

[2] = RWPE cells, control non-target siRNA-transfected

Row | Structure (SMILES) | total EGFR levels upon treatment (EGFR) | invasion upon amino acid addition, mean±SEM ([1]; RWPE cells with GNMT knockdown) | invasion upon amino acid addition, mean±SEM [1, 2] | induction of invasion upon exogenous addition [1] | increased invasion upon sarcosine addition compared to control ([1]; 25 μM) | increased invasion upon sarcosine addition compared to control ([1]; 50 μM) | EGFR phosphorylation upon treatment (EGFR; prostate epithelial cells (PrEC), compared to alanine-treated controls) | src phosphorylation upon treatment (src) | p38MAPK phosphorylation upon treatment (p38MAPK)
1 | C[C@H](N)C(=O)O [alanine, reference compound] | elevated |  |  |  |  |  |  |  | 
2 | NCC(=O)O [glycine] |  | 0.20±0.03 | 0.46±0.04 | induced invasion in these cells, although to a lesser degree than sarcosine |  |  |  |  | 
3 | CNCC(=O)O [sarcosine] | elevated | 0.64±0.07 | 0.65±0.05 | imparted an invasive phenotype | 1.64 fold | 2.57 fold | time-dependent increase | time-dependent increase | phosphorylation of p38MAPK
